Data taken from patent US20210330575A1 (DONG KOOK PHARM. CO., LTD, priority 2018, published 2021).

System: nitric oxide (NO) production in LPS-treated RAW264.7 cells
Test: Anti-inflammation activity: NO production by Griess reagent
Assay type: cell-based, mouse
Conditions: LPS-induced RAW264.7, 48 hours, FIG. 2
Procedure: RAW264.7 cells which have been induced to have an inflammation response by LPS in the same manner as above were added to a 96-well plate. […] Then, by using the Griess reagent, the production amount of NO was measured.

COc1ccc2c(c1)c(CC(=O)O)c(C)n2C(=O)c1ccc(Cl)cc1 [indomethacin]
NO production (result in words): decreased
